Source: patent US20060058243A1, “Methods and compositions for treating diabetes mellitis” (priority 2002, published 2006)
Entries after “also recorded” stand apart in the source; their conditions may differ.

Assays:
[1] = tested on: 3T3-L1 adipocytes; experiment: Glucose transport stimulatory (GTS) activity, 2-deoxy-D-[3H]glucose uptake; assay type: cell-based; conditions: for GTS activity (in words): 3T3-L1 cell system; for glucose uptake by the cells: 20-40 μM
Experimental: (§1) PGG, either as a mixture or as single isomer (α or β), is added to either adipocytes (A) or preadipocytes (B). GTS activity (A) and AD activity (B) of PGG are measured by ^3H-glucose uptake. GLUT4 is not expressed in preadipocytes, so glucose uptake can be used as an indirect measurement of adipocyte differentiation.
Glucose uptake activity in cells may be analyzed by measuring the uptake of 2-deoxy-D-[^3H] glucose using a standard assay. Confluent 3T3-L1 adipocytes grown in 12-well plates are washed twice with serum-free DMEM and incubated with 1 mL of the same medium at 37° C. for 2 h. The cells are washed 3 times with Krebs-Ringer-Hepes (KRP) buffer and incubated with 0.9 mL KRP buffer at 37° C. for 30 min. […] Glucose uptake is initiated by addition of 0.1 mL KRP buffer and 37 MBq/L 2-deoxy-D-[^3H] glucose and 1 mmol/L glucose as final concentrations. After 10 min, glucose uptake is terminated by washing the cells 3 times with cold PBS. The cells are lysed with 0.7 mL of 1% Triton X-100 at 37° C. for 20 min. The radioactivity retained by the cell lysates is determined by a scintillation counter. The dosage that induces the maximal glucose uptake can be selected among the experimental samples.
3T3-L1 adipocytes were purchased from ATCC, and maintained and passed as preadipocytes in DMEM supplemented with 10% calf serum in a 37° C. incubator with 10% CO2 as required by the cells. The cells were induced to differentiate into adipocytes by addition of MDI induction cocktail as described in Liu, F., Kim, J., Li, Y., Liu, X., Li, J. & Chen, X. (2001) An extract of Lagerstroemia speciosa L. has insulin-like glucose uptake-stimulatory and adipocyte differentiation-inhibitory activities in 3T3-L1 cells. J. Nutrition 131:2242-224, which is specifically incorporated herein by reference. Varying amounts of α-PGG and β-PGG were then added to the medium and the amount of glucose taken up by control and treated cells determined using a standard glucose uptake assay, as described in Liu et al. As shown in FIG. 2A chemically synthesized and plant derived β-PGG have similar glucose transport stimulatory (GTS). The GTS activity of α-PGG is consistently 10-20% higher than that of β-PGG (FIG. 2).
Confluent 3T3-L1 adipocytes grown in 12-well plates were washed twice with serum-free DMEM and incubated with 1 mL of the same medium at 37° C. for 2 h. The cells were washed 3 times with Krebs-Ringer-Hepes (KRP) buffer and incubated with 0.9 mL KRP buffer at 37° C. for 30 min. Compounds listed in the table below were then added at 20-40 μM (final concentration?) and adipocytes were incubated at 37° C. for 15 min. Glucose uptake was initiated by addition of 0.1 mL KRP buffer and 37 MBq/L 2-deoxy-D-[3H] glucose and 1 mmol/L glucose as final concentrations. After 10 min, glucose uptake was terminated by washing the cells 3 times with cold PBS. The cells were lysed with 0.7 mL of 1% Triton X-100 at 37° C. for 20 min. The radioactivity retained by the cell lysates is determined by a scintillation counter.

[2] = molecular target: T1, insulin receptor IR in 3T3-L1 adipocytes (Mus musculus, UniProt P15208); experiment: 125I-insulin binding in the presence of PGG; conditions: FIG. 4
T1 construct: host or cells: 3T3-L1 adipocytes

[3] = tested on: gelatin, BSA, ovalbumin; experiment: Competitive protein binding assay with 125I BSA tracer; conditions: FIG. 5
Experimental: A fixed quantity of ^125I BSA was incubated with PGG in the presence of variable amount of either cold gelatin, or BSA, or ovalbumin. Bound was separated from free by precipitation and was expressed as the % bound in the absence of competitor.
A competitive binding assay using radiolabeled bovine serum albumin (BSA) as the tracer was used to determine whether PGG can bind proteins selectively. The relative affinities of three standard proteins for PGG differ from one another by at least 10-fold (FIG. 5), and the difference of the binding affinities of PGG to gelatin and ovalbumin is more than 100-fold.

[4] = tested on: Akt in 3T3-L1 adipocytes; experiment: Western blot of Akt phosphorylation; assay type: cell-based; conditions: PGG 15 μM and 30 μM, FIG. 7
From the text: Differentially treated adipocytes were lysed, the cell proteins analyzed by SDS-PAGE.

[5] = tested on: 3T3-L1 preadipocytes; experiment: Adipocyte differentiation (AD) of preadipocytes, MDI induction, Oil Red O staining and glucose uptake; assay type: cell-based
Experimental: as §1
Ten days after induction, the cells were stained with Oil Red 0 and photographed at magnification X200. Only those cells that contain fat vesicles (triglyceride) can be stained.
After about 10 days MDI induces differentiation, which is clearly visible as the change from fibroblast-like preadipcytes to round-shaped, fat vesicle-containing adipocytes.
3T3-L1 adipocytes were purchased from ATCC, and maintained and passed as preadipocytes in DMEM supplemented with 10% calf serum in a 37° C. incubator with 10% CO2 as required by the cells. To test the effect of PGG on adipogenesis, the preadipocytes were incubated either with a differentiation-induction cocktail comprised of 3-isobutyl-1-methylxanthine, […], a cocktail comprised of 3-isobutyl-1-methylxanthine, dexamethasone (MD) and PGG; or with MDI plus PGG.
In order to study the mechanism by which PGG inhibits 3T3-L1 preadipocyte differentiation, we used gene expression studies. This strategy allows us to determine whether PGG specifically acts on genes that participate in the differentiation process. […] After about 10 days MDI induces differentiation, which is clearly visible as the change from fibroblast-like preadipcytes to round-shaped, fat vesicle-containing adipocytes (FIG. 8 middle).

[6] = tested on: PPARγ and C/EBPα gene expression in 3T3-L1 preadipocytes; experiment: Northern blot analysis of differentiation gene expression; assay type: cell-based; conditions: FIG. 9
Experimental: FIG. 9. Northern blot analysis of PPARγ and C/EBPα gene expression in 3T3-L1 preadipocytes. Differentially treated preadipocytes were analyzed for their mRNA expression at various times post treatment. Lane 1: No treatment; Lane 2=MDI; Lane 3=30 μM PGG+MDI; Lane 4=30 μM of PGG alone. Times=times post treatment when mRNA was isolated.
At various times the treated cells were harvested, the total RNA was isolated, and expression was analyzed by Northern blots using probes complementary to various genes that are involved in the differentiation process.

[7] = tested on: ob/ob mice; experiment: Glucose tolerance test in ob/ob mice; assay type: in vivo; conditions: ob/ob mice
Experimental: FIG. 11. Effect of PGG on blood glucose levels in db/db and ob/ob mice. Various doses of α-PGG were orally delivered without glucose to db/db mice(A) or with glucose to ob/ob mice (B) mice. At different times post the delivery, glucose was determined in samples from tail blood.
FIG. 12. PGG protects ob/ob mice from hyperglycemia immediately after glucose challenge and hypoglycemia several days after the challenge. At various time points after the glucose challenge, blood glucose levels were measured in tail blood.
To determine if α-PGG is also effective in improving glucose tolerance in diabetic and obese mice, a glucose tolerance test was performed using ob/ob mice. Glucose or glucose plus α-PGG were orally delivered into male ob/ob mice, and blood glucose levels were measured at various times post glucose/PGG administration.
A single high does of glucose in ob/ob mice can be fatal, either because of the very high levels of blood glucose levels […] after the glucose challenge or because of the abnormally low glucose levels 2-3 days after the glucose challenge. […] Although the protection mechanisms are unknown at this time, it is very likely that α-PGG protected the ob/ob mice not only by its GTS activity, but also some other activity such as AD-related activity.

[8] = tested on: Normal (healthy) mice; experiment: Blood glucose in normal mice at basal glucose level (hypoglycemia test); conditions: given 120 min after 40 mg oral glucose; PGG oral, insulin intraperitoneal
Experimental: Normal (healthy) mice were orally fed with 40 mg of glucose at time zero. […] Thus, PGG reduces blood glucose level when it is higher than normal.

[9] = tested on: 3T3-L1 adipocytes; experiment: Glucose transport induced by insulin or PGG in the presence of insulin-signaling pathway inhibitors; assay type: cell-based; conditions: FIG. 6
Experimental: The glucose transport activity of the treated cells was measured by ^3H glucose taken up by the cells. HNMPA-(AM)3 inhibits IR Tyr kinase activity, Cytochalasin B inhibits GLUT4, Wortmannin inhibits PI-3K, respectively.

[10] = tested on: 3T3-L1 preadipocytes; experiment: Clonal expansion / cell proliferation assay by LDH activity; assay type: cell-based; conditions: in the presence of MDI, FIG. 10
Experimental: Preadipocytes were induced to undergo clonal expansion by MDI, or α-PGG, or β-PGG in the presence of MDI. 24 or 48 hrs after induction, the media was removed and the cells were lysed. The […] (LDH) activity of the cell lysates was measured by LDH kit. Cell growth media were also collected and their LDH activity from dead cells was also measured (not shown on this graph). LDH activity is a constant per cell in a given cell type, the LDH activity measured is proportional to the number of cells in the samples.
A cell proliferation assay was used to determine if PGG inhibits adipocyte differentiation by blocking clonal expansion. […] The basis for the difference between the anomers in clonal expansion and differentiation is not known.

T1 sequence (P15208 28-748 limits assumed): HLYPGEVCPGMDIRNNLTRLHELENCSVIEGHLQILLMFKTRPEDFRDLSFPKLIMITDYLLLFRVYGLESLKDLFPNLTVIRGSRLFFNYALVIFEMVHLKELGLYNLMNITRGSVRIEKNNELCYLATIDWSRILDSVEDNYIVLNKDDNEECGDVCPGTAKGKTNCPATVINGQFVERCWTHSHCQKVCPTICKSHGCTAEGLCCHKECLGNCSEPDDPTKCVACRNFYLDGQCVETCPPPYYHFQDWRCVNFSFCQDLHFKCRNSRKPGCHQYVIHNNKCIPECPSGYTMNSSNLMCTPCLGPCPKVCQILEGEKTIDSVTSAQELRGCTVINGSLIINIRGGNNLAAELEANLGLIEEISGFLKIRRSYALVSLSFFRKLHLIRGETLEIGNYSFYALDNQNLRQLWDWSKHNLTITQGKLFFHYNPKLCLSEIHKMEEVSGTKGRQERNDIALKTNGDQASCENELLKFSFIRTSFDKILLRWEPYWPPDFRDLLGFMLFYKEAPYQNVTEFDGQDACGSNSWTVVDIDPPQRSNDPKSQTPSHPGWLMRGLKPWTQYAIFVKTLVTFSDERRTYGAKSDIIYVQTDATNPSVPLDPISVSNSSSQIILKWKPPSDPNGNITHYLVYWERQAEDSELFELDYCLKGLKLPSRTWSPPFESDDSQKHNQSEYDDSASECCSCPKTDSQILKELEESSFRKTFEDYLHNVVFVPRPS
T1 sequence (P15208 753-1372 limits assumed): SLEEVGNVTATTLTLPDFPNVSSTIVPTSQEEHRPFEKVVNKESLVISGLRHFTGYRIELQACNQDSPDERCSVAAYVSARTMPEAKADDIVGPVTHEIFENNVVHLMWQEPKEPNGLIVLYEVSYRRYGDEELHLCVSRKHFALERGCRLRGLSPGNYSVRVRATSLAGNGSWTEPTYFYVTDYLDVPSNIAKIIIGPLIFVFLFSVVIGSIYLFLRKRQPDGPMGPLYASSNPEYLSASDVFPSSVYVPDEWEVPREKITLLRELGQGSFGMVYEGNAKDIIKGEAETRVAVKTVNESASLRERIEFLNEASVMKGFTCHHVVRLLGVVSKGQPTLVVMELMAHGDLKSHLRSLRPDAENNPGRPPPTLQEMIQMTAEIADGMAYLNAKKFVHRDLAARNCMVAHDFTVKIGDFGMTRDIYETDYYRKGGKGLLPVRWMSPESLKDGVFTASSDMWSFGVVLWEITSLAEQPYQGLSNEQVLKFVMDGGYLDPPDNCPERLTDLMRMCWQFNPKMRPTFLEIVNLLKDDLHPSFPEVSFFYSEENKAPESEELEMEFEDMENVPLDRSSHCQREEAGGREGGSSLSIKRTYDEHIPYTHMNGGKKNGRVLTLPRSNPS

In the case of O=C(O[C@@H]1Cc2c(O)cc(O)cc2O[C@@H]1c1cc(O)c(O)c(O)c1)c1cc(O)c(O)c(O)c1 [EGCG, reference compound], the “GTS activity (in words)” value [1] was “no activity”.
For O=C[C@H](OC(=O)c1cc(O)c(O)c(O)c1)[C@@H](OC(=O)c1cc(O)c(O)c(O)c1)[C@H](OC(=O)c1cc(O)c(O)c(O)c1)[C@@H](COC(=O)c1cc(O)c(O)c(O)c1)OC(=O)c1cc(O)c(O)c(O)c1 [PGG, penta-O-galloyl-D-glucose], the “GTS activity (in words)” value [1] was “high activities”, the “competition with / displacement of insulin at the insulin binding site on IR” value ([2]; 8 pM 125I-insulin, 0.1 to 20 μM PGG, overnight 4° C.) was “does not compete with insulin; also recorded: unable to displace insulin from IR” and the “insulin binding at higher PGG concentrations” value ([2]; PGG above 20 μM) was “Insulin binding increased”. For the same molecule, the “difference of binding affinities of PGG to gelatin and ovalbumin” value [3] was “more than 100 fold”, the “difference between relative affinities of three standard proteins for PGG” value ([3]; gelatin, BSA, ovalbumin) was “at least 10 fold” and the “phosphorylation of Akt” value [4] was “phosphorylated”. The “induction of differentiation when insulin in MDI was substituted by PGG” value ([5]; MD plus PGG, FIG. 2B) was “failed to induce differentiation”, the “differentiation of preadipocytes treated with MDI plus compound” value ([5]; about 10 days, 30 μM PGG, FIG. 8) was “retain their fibroblast-like morphology and remain fat vesicle-free” and the “expression of genes PPAR-γ, c/EBP induced by MDI” value ([6]; 30 μM PGG+MDI) was “completely abolished”. The β-actin expression [6] was “not significantly affected”, the toxic effects [7] was “No PGG-related toxic effects were observed” and the “hypoglycemia / blood glucose below basal levels” value [8] was “does not further reduce bood glucose levels beyond normal or basal levels”.
For O=C(OC[C@H]1OC(OC(=O)c2cc(O)c(O)c(O)c2)[C@H](OC(=O)c2cc(O)c(O)c(O)c2)[C@@H](OC(=O)c2cc(O)c(O)c(O)c2)[C@H]1OC(=O)c1cc(O)c(O)c(O)c1)c1cc(O)c(O)c(O)c1 (stereo partly shown) [PGGal, Pentagalloyl galactose], the “GTS activity relative to PGG” value ([1]; 3T3-L1 cells) was 60-70%.
C=C1[C@@H](C)[C@H]2[C@H](Cc3ccccc3)NC(=O)[C@]23OC(=O)/C=C/[C@H](O)CCC[C@@H](C)C/C=C/[C@H]3[C@@H]1O [cytochalasin B] was tested, and the “inhibition of the GTS activity mediated by either insulin or PGG” value [9] was “completely inhibited”.
O=C(O[C@H]1OC[C@@H](OC(=O)c2cc(O)c(O)c(O)c2)[C@H](OC(=O)c2cc(O)c(O)c(O)c2)[C@H]1OC(=O)c1cc(O)c(O)c(O)c1)c1cc(O)c(O)c(O)c1 [α-XylG4, Tetrakis-O-(3,4,5-trihydroxybenzoyl) -α-D-xylopyranose] was tested, and the “glucose uptake by the cells” value ([1]; 3T3-L1 adipocytes) was “increased glucose uptake”.
For O=C(OC[C@H]1O[C@@H](OC(=O)c2ccc(O)c(O)c2)[C@H](OC(=O)c2ccc(O)c(O)c2)[C@@H](OC(=O)c2ccc(O)c(O)c2)[C@@H]1OC(=O)c1ccc(O)c(O)c1)c1ccc(O)c(O)c1 [β-Glc(G-3,4-OH2)5, Pentakis-O-(3,4-dihydroxybenzoyl) -β-D-glucopyranose], the “glucose uptake by the cells” value ([1]; 3T3-L1 adipocytes) was “increased glucose uptake”.
O=C(OC[C@H]1O[C@@H](OC(=O)c2cc(O)c(O)c(O)c2)[C@H](OC(=O)c2cc(O)c(O)c(O)c2)[C@@H](OC(=O)c2cc(O)c(O)c(O)c2)[C@@H]1OC(=O)c1cc(O)c(O)c(O)c1)c1cc(O)c(O)c(O)c1 [β-PGG, 1,2,3,4,6-penta-O-galloyl-β-D-glucose] was tested, and the “GTS activity, synthesized versus plant derived β-PGG” value ([1]; 3T3-L1 adipocytes, FIG. 2A) was “similar”, the “first round of clonal expansion” value [10] was “not inhibited” and the “second round of clonal expansion” value [10] was “completely inhibited”.
With “insulin: hormone, positive control [reference compound]” the “hypoglycemia / blood glucose below basal levels” value [8] was “resulted in a hypoglycemic condition”.
For pentagalloyl deoxynojirimycin [PG-DJM], the “GTS activity (in words)” value [1] was “no detectable GTS activity”.
